How the values were obtained:
[1] = tested on: Phospho-YAP (SER127) in HaCaT cells; experiment: pYAP HTRF Assay (HaCaT Cells); type: cell-based, human; settings: Homo sapiens, 2 hours
Procedure: The pYAP HTRF assay was performed using the Phospho-YAP (SER127) 10000 test kit (CisBio, catalogue number 64YAPPEH) according to manufacturer's instructions. Briefly, HaCaT cells were suspended at 1.1×10^6 cells/mL in DMEM (no phenol red)+10% FBS with penicillin-streptomycin-glutamine. 5 μL of cells were dispensed into 1536 well white solid bottom, tissue culture treated plates (5500 cells/well), and incubated for 48 hours at 37° C. 50 nL test compound was transferred into the assay plates containing HaCaT cells using Pintool (GNF) and incubated for 2 hours. […] The plates were incubated overnight (20 hrs) at room temperature covered with metal lids. Plates were read on Pherastar (BMG Labtech) for HTRF (665 nm/620 nm).

[2] = tested on: YAP nuclear translocation in HaCaT cells; experiment: YAP Translocation Assay (HaCaT Cells); type: cell-based, human; settings: Homo sapiens, 24 hours
Procedure: HaCaT cells were suspended at 0.4×10^6 cells/ml in DMEM+10% FBS with penicillin-streptomycin-glutamine. 50 μl of cells were dispensed into 384-well clear bottom assay plates (20,000 cells/well), and incubated overnight at 37° C. 100 nL test compound was transferred into the assay wells containing HaCaT cells using ECHO (Labcyte). After 24 hours incubation at 37° C., 7 μL of 32% PFA was dispensed into each well and incubated for 45 minutes at room temperature. Plates were washed 3 times with PBS, leaving 20 μL of PBS per well, then treated with 0.1% Triton and 1.5% BSA in PBS for 45 minutes at room temperature. Plates were washed for 5 times with PBS, leaving 20 μL of PBS per well. […] Plates were further washed 3 time with PBS, sealed and imaged on the high-content Opera imaging system (PerkinElmer).

LATS1 = LATS1 (Homo sapiens (Human), UniProt O95835); experiment: LATS1 biochemical assay (Table 1A, Compound Examples 1-290; method in the earlier part)
LATS1, sequence (O95835 whole entry, looked up): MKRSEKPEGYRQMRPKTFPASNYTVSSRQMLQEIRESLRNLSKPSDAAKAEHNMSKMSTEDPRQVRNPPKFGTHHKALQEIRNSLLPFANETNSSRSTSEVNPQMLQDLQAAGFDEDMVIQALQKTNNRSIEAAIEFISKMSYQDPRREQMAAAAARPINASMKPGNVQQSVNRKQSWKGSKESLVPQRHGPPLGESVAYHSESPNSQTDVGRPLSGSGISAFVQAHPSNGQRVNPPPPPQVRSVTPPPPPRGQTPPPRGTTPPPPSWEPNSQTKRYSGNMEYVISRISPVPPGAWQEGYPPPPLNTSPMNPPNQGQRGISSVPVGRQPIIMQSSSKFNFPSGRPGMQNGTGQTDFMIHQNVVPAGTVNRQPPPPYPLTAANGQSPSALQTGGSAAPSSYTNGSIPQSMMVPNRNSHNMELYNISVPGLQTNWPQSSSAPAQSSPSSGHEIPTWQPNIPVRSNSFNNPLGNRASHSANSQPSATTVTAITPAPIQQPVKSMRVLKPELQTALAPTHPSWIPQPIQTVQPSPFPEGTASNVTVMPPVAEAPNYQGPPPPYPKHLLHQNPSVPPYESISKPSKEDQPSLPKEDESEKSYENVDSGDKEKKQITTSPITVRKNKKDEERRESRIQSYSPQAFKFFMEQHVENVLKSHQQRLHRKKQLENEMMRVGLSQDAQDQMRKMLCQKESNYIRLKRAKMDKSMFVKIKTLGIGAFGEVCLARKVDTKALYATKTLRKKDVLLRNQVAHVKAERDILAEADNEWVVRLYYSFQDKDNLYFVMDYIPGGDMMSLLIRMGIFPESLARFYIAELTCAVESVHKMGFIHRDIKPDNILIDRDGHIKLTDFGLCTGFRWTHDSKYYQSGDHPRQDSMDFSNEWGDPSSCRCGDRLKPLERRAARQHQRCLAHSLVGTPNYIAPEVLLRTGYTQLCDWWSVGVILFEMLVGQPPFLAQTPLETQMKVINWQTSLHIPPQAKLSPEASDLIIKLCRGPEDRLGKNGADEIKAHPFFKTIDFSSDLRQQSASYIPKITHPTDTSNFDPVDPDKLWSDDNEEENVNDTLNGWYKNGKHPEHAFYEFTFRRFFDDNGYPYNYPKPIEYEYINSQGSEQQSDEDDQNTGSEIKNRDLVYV
LATS1, sequence (Q7L9L4 whole entry partner, looked up): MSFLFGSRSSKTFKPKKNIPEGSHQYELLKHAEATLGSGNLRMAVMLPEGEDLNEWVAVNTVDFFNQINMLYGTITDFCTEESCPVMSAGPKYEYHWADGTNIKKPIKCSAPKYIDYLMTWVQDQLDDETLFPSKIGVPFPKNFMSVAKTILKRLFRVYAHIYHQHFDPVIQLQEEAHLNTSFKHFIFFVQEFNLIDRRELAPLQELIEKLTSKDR

| Compound | IC50 [1] [µM] | EC50 [2] [µM] | IC50 (LATS1) [µM] |
| --- | --- | --- | --- |
| CC1(Nc2nc(-c3ccnc4[nH]ccc34)nc3cnccc23)CC1 [Example 154, N-(1-methylcyclopropyl)-2-{1H-pyrrolo[2,3-b]pyridin-4-yl}pyrido[3,4-d]pyrimidin-4-amine] | 2.53 | 1.06 | – |
| CC(C)N(C)c1cc(-c2ccncc2)nc2cnccc12 [Example 259, N-methyl-N-(propan-2-yl)-2-(pyridin-4-yl)-1,7-naphthyridin-4-amine] | – | 17.3 | 0.061 |
| CC(C)(C)Nc1nc(-c2ccncc2C(F)(F)F)nc2cnccc12 [Example 130, N-tert-butyl-2-[3-(trifluoromethyl)pyridin-4-yl]pyrido[3,4-d]pyrimidin-4-amine] | – | > 20 | 1.15 |
| CC(C)(O)CC(C)(C)Nc1nc(-c2c[nH]nc2C(F)(F)F)nc2cnccc12 [Example 119, 2,4-dimethyl-4-({2-[3-(trifluoromethyl)-1H-pyrazol-4-yl]pyrido[3,4-d]pyrimidin-4-yl}amino)pentan-2-ol] | – | 5.18 | 0.009 |
| C[C@@](Nc1nc(-c2ccncc2)nc2cnccc12)(C(=O)O)C(F)(F)F [Example 31, (2R)-3,3,3-trifluoro-2-methyl-2-{[2-(pyridin-4-yl)pyrido[3,4-d]pyrimidin-4-yl]amino}propanoic acid] | – | > 20 | 0.041 |
| OCCC(Nc1nc(-c2ccncc2)nc2cnccc12)C(F)(F)F (centres unmarked) [Example 27, 4,4,4-trifluoro-3-{[2-(pyridin-4-yl)pyrido[3,4-d]pyrimidin-4-yl]amino}butan-1-ol] | – | > 14.4 | 0.035 |
| COC(=O)[C@H]1C[C@@H](Nc2nc(-c3ccncc3)nc3cnccc23)C1 [Example 54, methyl (1s,3s)-3-{[2-(pyridin-4-yl)pyrido[3,4-d]pyrimidin-4-yl]amino}cyclobutane-1-carboxylate] | – | > 20 | 0.078 |
| CC(C)(CS(C)(=O)=O)Nc1nc(-c2ccncc2)nc2cnccc12 [Example 28, N-(1-methanesulfonyl-2-methylpropan-2-yl)-2-(pyridin-4-yl)pyrido[3,4-d]pyrimidin-4-amine] | – | > 20 | 0.036 |
| CC(C)(CC(=O)O)NC(=O)CC(C)(C)Nc1nc(-c2ccncc2)nc2cnccc12 [Example 37, 3-methyl-3-(3-methyl-3-{[2-(pyridin-4-yl)pyrido[3,4-d]pyrimidin-4-yl]amino}butanamido) butanoic acid] | – | > 6.67 | 0.233 |
| CC(C)(O)CC(C)(C)Nc1nc(-c2ccncc2C#N)nc2cnccc12 [Example 146, 4-{4-[(4-hydroxy-2,4-dimethylpentan-2-yl)amino]pyrido[3,4-d]pyrimidin-2-yl}pyridine-3-carbonitrile] | – | > 20 | 0.033 |
| CC(C)(C)Nc1nc(-c2cc(Cl)ncc2C(F)(F)F)nc2cnccc12 [Example 131, N-tert-butyl-2-[2-chloro-5-(trifluoromethyl)pyridin-4-yl]pyrido[3,4-d]pyrimidin-4-amine] | – | > 20 | > 0.833 |
| Clc1cnccc1-c1nc(NCCCc2nnn[nH]2)c2ccncc2n1 [Example 132, 2-(3-chloropyridin-4-yl)-N-[3-(1H-1,2,3,4-tetrazol-5-yl)propyl]pyrido[3,4-d]pyrimidin-4-amine] | – | > 20 | > 2.5 |
| CC(CO)(Nc1nc(-c2ccncc2)nc2cnccc12)C(F)(F)F (centres unmarked) [Example 67, 3,3,3-trifluoro-2-methyl-2-{[2-(pyridin-4-yl)pyrido[3,4-d]pyrimidin-4-yl]amino}propan-1-ol] | – | 0.685 | 0.002 |
| CC(C)(O)COCC(C)(C)Nc1nc(-c2ccncc2Cl)nc2cnccc12 [Example 127, 1-(2-{[2-(3-chloropyridin-4-yl)pyrido[3,4-d]pyrimidin-4-yl]amino}-2-methylpropoxy)-2-methylpropan-2-ol] | – | > 20 | 0.055 |
| C[C@](Nc1nc(-c2ccncc2)nc2cnccc12)(C(=O)O)C(F)(F)F [Example 29, (2S)-3,3,3-trifluoro-2-methyl-2-{[2-(pyridin-4-yl)pyrido[3,4-d]pyrimidin-4-yl]amino}propanoic acid] | – | > 20 | 0.036 |
| CC(C)C(=O)Nc1nc(-c2ccncc2)nc2cnccc12 [Example 43, 2-methyl-N-[2-(pyridin-4-yl)pyrido[3,4-d]pyrimidin-4-yl]propanamide] | – | > 20 | > 1.97 |
| CC(C)(O)COCC(C)(C)Nc1nc(-c2c[nH]nc2C(F)(F)F)nc2cnccc12 [Example 121, 2-methyl-1-[2-methyl-2-({2-[3-(trifluoromethyl)-1H-pyrazol-4-yl]pyrido[3,4-d]pyrimidin-4-yl}amino)propoxy]propan-2-ol] | – | 8.17 | 0.014 |

| Compound | IC50 [1] [µM] | EC50 [2] [µM] | IC50 (LATS1) [µM] |
| --- | --- | --- | --- |
| CN[C@@H]1CCCC[C@H]1N(C)c1nc(-c2ccncc2)nc2cnccc12 [Example 53, (1R,2R)-1-N,2-N-dimethyl-1-N-[2-(pyridin-4-yl)pyrido[3,4-d]pyrimidin-4-yl]cyclohexane-1,2-diamine] | – | > 20 | 0.04 |
| Cn1nccc1-c1nc(NC2(C(F)(F)F)CC2)c2ccncc2n1 [Example 189, 2-(1-methyl-1H-pyrazol-5-yl)-N-[1-(trifluoromethyl)cyclopropyl]pyrido[3,4-d]pyrimidin-4-amine] | – | > 10 | 0.083 |
| C[C@@H](Nc1nc(-c2cn[nH]c2)nc2cnccc12)c1ccccc1 [Example 167, N-[(1R)-1-phenylethyl]-2-(1H-pyrazol-4-yl)pyrido[3,4-d]pyrimidin-4-amine] | – | > 20 | 0.143 |
| c1ccc(Nc2nc(-c3ccncc3)nc3cnccc23)cc1 [Example 92, N-phenyl-2-(pyridin-4-yl)pyrido[3,4-d]pyrimidin-4-amine] | – | > 20 | 0.304 |
| CC(C)(COCC(=O)O)Nc1nc(-c2ccncc2)nc2cnccc12 [Example 25, 2-(2-methyl-2-{[2-(pyridin-4-yl)pyrido[3,4-d]pyrimidin-4-yl]amino}propoxy)acetic acid] | – | > 20 | 0.03 |
| CC(Nc1nc(-c2cn[nH]c2)nc2cnccc12)c1ccncc1 (centres unmarked) [Example 183, 2-(1H-pyrazol-4-yl)-N-[1-(pyridin-4-yl)ethyl]pyrido[3,4-d]pyrimidin-4-amine] | – | > 20 | 0.797 |
| CC1(Nc2nc(-c3nn[nH]n3)nc3cnccc23)CC1 [Example 182, N-(1-methylcyclopropyl)-2-(2H-1,2,3,4-tetrazol-5-yl)pyrido[3,4-d]pyrimidin-4-amine] | – | > 20 | > 10 |
| CC(C)(O)CC(C)(C)Nc1nc(-c2cn[nH]c2)nc2cnccc12 [Example 166, 2,4-dimethyl-4-{[2-(1H-pyrazol-4-yl)pyrido[3,4-d]pyrimidin-4-yl]amino}pentan-2-ol] | – | 8.45 | 0.014 |
| CCCNc1nc(-c2c[nH]nc2C2CC2)nc2cnccc12 [Example 163, 2-(3-cyclopropyl-1H-pyrazol-4-yl)-N-propylpyrido[3,4-d]pyrimidin-4-amine] | – | > 20 | 0.051 |
| CC(C)S(=O)(=O)Nc1nc(-c2ccncc2)nc2cnccc12 [Example 45, N-[2-(pyridin-4-yl)pyrido[3,4-d]pyrimidin-4-yl]propane-2-sulfonamide] | – | > 20 | > 2.5 |
| Cc1ccc(Nc2nc(-c3ccncc3)nc3cnccc23)cc1 [Example 90, N-(4-methylphenyl)-2-(pyridin-4-yl)pyrido[3,4-d]pyrimidin-4-amine] | – | > 20 | 0.126 |
| CCn1nccc1-c1nc(NC2(C)CC2)c2ccncc2n1 [Example 173, 2-(1-ethyl-1H-pyrazol-5-yl)-N-(1-methylcyclopropyl)pyrido[3,4-d]pyrimidin-4-amine] | – | > 20 | 0.061 |
| CCCNc1nc(-c2ccncc2Cl)nc2cnccc12 [Example 162, 2-(3-chloropyridin-4-yl)-N-propylpyrido[3,4-d]pyrimidin-4-amine] | – | > 20 | 0.049 |
| Cc1c(-c2nc(NC(C)(C)C)c3ccncc3n2)c2cccnc2n1S(=O)(=O)c1ccccc1 [Example 113, 2-[1-(benzenesulfonyl)-2-methyl-1H-pyrrolo[2,3-b]pyridin-3-yl]-N-tert-butylpyrido[3,4-d]pyrimidin-4-amine] | – | > 20 | 0.235 |
| OCCOCCNc1nc(-c2ccncc2)nc2cnccc12 [Example 35, 2-(2-{[2-(pyridin-4-yl)pyrido[3,4-d]pyrimidin-4-yl]amino}ethoxy)ethan-1-ol] | – | > 20 | 0.118 |
| Fc1cnccc1-c1cc(N2CCCCC2)c2ccncc2n1 [Example 278, 2-(3-fluoropyridin-4-yl)-4-(piperidin-1-yl)-1,7-naphthyridine] | – | > 20 | 0.09 |
| Cc1cc(-c2nc(NC3(C)CC3)c3ccncc3n2)on1 [Example 181, 2-(3-methyl-1,2-oxazol-5-yl)-N-(1-methylcyclopropyl)pyrido[3,4-d]pyrimidin-4-amine] | – | > 10 | 9 |
